Assay results reported in US8058395B2, “Chimeric protein comprising a green fluorescent ptotein fused to a transcription factor” (The United States of America as represented by the …, priority 1995, dated 2011).

How the values were obtained:
Assay type in all cases: cell-based
GFP-GR [1] = molecular target: T1, GFP-GR (Rattus norvegicus, UniProt P06536, C656G/D98G); assay: Activation of endogenous multi-copy MMTV LTR-CAT reporter in 1471.1 cells expressing GFP-GR (ligand specificity); settings: 4 hrs, dex 1 nM and 10 nM, RU486 10 nM
T1 construct: expressed in transfected cells; host or cells: 1471.1 cells (murine C127 adenocarcinoma derivative); 3134 cells (C127 derivative) for gene targeting

GFP-GR [2] = molecular target: T1, GFP-GR; assay: Cytoplasm-to-nuclear translocation of GFP-GR in living transfected murine adenocarcinoma cells (video/confocal microscopy)
GFP-GR [3] = molecular target: T1, GFP-GR; assay: Intranuclear accumulation pattern (foci) of GFP-GR, confocal microscopy and 3D reconstruction; settings: ligand-treated cells

## C[C@]12CC[C@@H]3c4ccc(O)cc4CC[C@H]3[C@@H]1CC[C@@H]2O [17-β-estradiol]
GFP-GR [1]
  activation of MMTV LTR-CAT reporter: fails to activate
GFP-GR [2]; 10 nM ligand, 30 min at 37° C.
  extent of GFP-GR cytoplasm-to-nuclear translocation: did not cause intranuclear GFP-GR accumulation
GFP-GR [3]
  intranuclear focal accumulation pattern of GFP-GR: not observed

## C[C@@H]1C[C@H]2[C@@H]3CCC4=CC(=O)C=C[C@]4(C)[C@@]3(F)[C@@H](O)C[C@]2(C)[C@@]1(O)C(=O)CO [dexamethasone]
GFP-GR [2]
  fluorescing cells in which translocation of GFP-GR occurs: 100%
